Results: patent US20170342499A1, “GENOMIC CLASSIFIER THAT PREDICTS RESPONSE TO MULTI-KINASE INHIBITOR TREATMENT INTRODUCTION” (Centre Léon-Bérard, priority 2014, published 2017)

What was measured:
CRC = test: Response to conventional chemotherapy versus SUMSCAN prediction in CRC patients; format: in vivo, human; details: CRC patients (n = 21)
[1] = tested on: imatinib and sunitinib refractory gastrointestinal stromal tumors (GIST); details: cited from earlier work
[2] = tested on: pretreated metastatic colorectal cancer (mCRC); details: cited from earlier work

With `O=C1[O][Pt]2([NH][C@@H]3CCCC[C@H]3[NH]2)[O]C1=O` [Oxaliplatin] the “patients resistant to the chemotherapy regimen, n (% of 21)” value (“patients resistant … (% of 21)” for short) (CRC; SUMSCAN Predicted Resistant) was 2 (9.5%), the “patients sensitive to the chemotherapy regimen, n (% of 21)” value (shortened to “patients sensitive … (% of 21)”) (CRC; SUMSCAN Predicted Resistant) was 7 (33.3%) and the “patients resistant … (% of 21)” value (CRC; SUMSCAN Predicted Sensitive) was 6 (28.6%). For the same compound, the “patients sensitive … (% of 21)” value (CRC; SUMSCAN Predicted Sensitive) was 6 (28.6%), the “patients resistant … (% of 21)” value (CRC; Total) was 8 (38.1%) and the “patients sensitive … (% of 21)” value (CRC; Total) was 13 (61.9%).
In the case of `CCc1c2c(nc3ccc(OC(=O)N4CCC(N5CCCCC5)CC4)cc13)-c1cc3c(c(=O)n1C2)COC(=O)[C@]3(O)CC` [Irinotecan], the “patients resistant … (% of 21)” value (CRC; SUMSCAN Predicted Resistant) is reported as 2 (9.5%), the “patients sensitive … (% of 21)” value (CRC; SUMSCAN Predicted Resistant) is reported as 7 (33.3%) and the “patients resistant … (% of 21)” value (CRC; SUMSCAN Predicted Sensitive) is reported as 3 (14.3%). The “patients sensitive … (% of 21)” value (CRC; SUMSCAN Predicted Sensitive) was 9 (42.9%), the “patients resistant … (% of 21)” value (CRC; Total) was 5 (23.8%) and the “patients sensitive … (% of 21)” value (CRC; Total) was 16 (76.2%).
In the case of `CNC(=O)c1cc(Oc2ccc(NC(=O)Nc3ccc(Cl)c(C(F)(F)F)c3)c(F)c2)ccn1` [Regorafenib], the “antitumor activity by nature of the KIT/or PDGFRA mutation” value ([1]; GIST) is listed as “observed at the same level regardless of the nature of the KIT/or PDGFRA mutation”, the “improvement in PFS” value ([1]; imatinib and sunitinib refractory GIST) is listed as 4 months and the “improvement in PFS” value [2] is listed as 0.9 weeks.
